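Method: 48-hour compound exposure of cells in 96-well plates, five concentrations, linear interpolation of endpoints. At the GI50, growth is halved.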 Calls of active or inactive are those of the source. Rule as the data show it: active = GI50 up to about 1.1 µM and inactive = higher.
Key:
Assay in all cases: NCI-60 cell line screen, 48 h
SK-MEL-5 = tested on: SK-MEL-5
KM12 = tested on: KM12
SN12C = tested on: SN12C
Hs-578T = tested on: Hs-578T
MDA-MB-231 = tested on: MDA-MB-231
BT-549 = tested on: BT-549
A498 = tested on: A498
CAKI-1 = tested on: CAKI-1
UACC-62 = tested on: UACC-62
SK-OV-3 = tested on: SK-OV-3
COLO 205 = tested on: COLO 205
A549 = tested on: A549
MDA-MB-435 = tested on: MDA-MB-435
DU-145 = tested on: DU-145
HOP-62 = tested on: HOP-62
SW-620 = tested on: SW-620
U-251 = tested on: U-251
T47D = tested on: T47D
RXF 393 = tested on: RXF 393
OVCAR-4 = tested on: OVCAR-4

Row | SMILES | GI50 (SK-MEL-5) | GI50 (KM12) | GI50 (SN12C) | GI50 (Hs-578T) | GI50 (MDA-MB-231) | GI50 (BT-549) | GI50 (A498) | GI50 (CAKI-1) | GI50 (UACC-62) | GI50 (SK-OV-3) | GI50 (COLO 205) | GI50 (A549) | GI50 (MDA-MB-435) | GI50 (DU-145) | GI50 (HOP-62) | GI50 (SW-620) | GI50 (U-251) | GI50 (T47D) | GI50 (RXF 393) | GI50 (OVCAR-4)
1 | CN(CC(=O)N1CC(CCl)c2ccc([N+](=O)[O-])cc21)CC(=O)N1CC(CCl)c2ccc([N+](=O)[O-])cc21 (centres undefined) | 98.9 µM (inactive) | > 100 µM (inactive) | > 100 µM (inactive) | > 100 µM (inactive) | > 100 µM (inactive) | > 100 µM (inactive) | > 100 µM (inactive) | > 100 µM (inactive) | > 100 µM (inactive) | > 100 µM (inactive) | > 100 µM (inactive) | > 100 µM (inactive) | 83.9 µM (inactive) | > 100 µM (inactive) | > 100 µM (inactive) | > 100 µM (inactive) | > 100 µM (inactive) | – | – | –
2 | CN1CN(c2ccccc2)C2(CCN(CCCCCCF)CC2)C1=O | 38.1 µM (inactive) | > 100 µM (inactive) | 68.9 µM (inactive) | – | 81.1 µM (inactive) | 3.41 µM (inactive) | – | 41.9 µM (inactive) | 90.2 µM (inactive) | > 100 µM (inactive) | 21.1 µM (inactive) | 57.7 µM (inactive) | > 100 µM (inactive) | 44.1 µM (inactive) | 31.1 µM (inactive) | 53.8 µM (inactive) | 97.1 µM (inactive) | 29.9 µM (inactive) | > 100 µM (inactive) | –
3 | CC(=O)NC1C(OCc2ccccc2)OC(CO)C(O)C1OCC(=O)NC(C)C(=O)NC(CCC(=O)NCCCCCNc1c2ccccc2nc2cccc([N+](=O)[O-])c12)C(N)=O (centres undefined) | < 0.0001 µM (active) | < 0.0001 µM (active) | < 0.0001 µM (active) | < 0.01 µM (active) | < 0.0001 µM (active) | < 0.0001 µM (active) | < 0.0001 µM (active) | < 0.0001 µM (active) | – | – | < 0.0001 µM (active) | < 0.0001 µM (active) | < 0.0001 µM (active) | < 0.0001 µM (active) | < 0.0001 µM (active) | < 0.0001 µM (active) | < 0.0001 µM (active) | – | < 0.01 µM (active) | 0.00074 µM (active)
4 | CCOC(=O)NC(C(F)(F)F)(C(F)(F)F)P(=O)(OC(C)C)OC(C)C | > 100 µM (inactive) | > 100 µM (inactive) | > 100 µM (inactive) | > 100 µM (inactive) | > 100 µM (inactive) | > 100 µM (inactive) | – | – | > 100 µM (inactive) | > 100 µM (inactive) | > 100 µM (inactive) | > 100 µM (inactive) | > 100 µM (inactive) | > 100 µM (inactive) | > 100 µM (inactive) | > 100 µM (inactive) | > 100 µM (inactive) | – | > 100 µM (inactive) | > 100 µM (inactive)
5 | Cn1c(=O)c2c(no[n+]2[O-])n(C)c1=O | 42.6 µM (inactive) | 52 µM (inactive) | 39.3 µM (inactive) | 22.6 µM (inactive) | 21.7 µM (inactive) | 21.7 µM (inactive) | 18.2 µM (inactive) | 19.3 µM (inactive) | 19.5 µM (inactive) | 53.5 µM (inactive) | 23 µM (inactive) | > 100 µM (inactive) | 20 µM (inactive) | – | 18.4 µM (inactive) | 25.4 µM (inactive) | 22.6 µM (inactive) | > 100 µM (inactive) | 27.7 µM (inactive) | 59.8 µM (inactive)
6 | O=c1n(-c2ccccc2)c(=O)n2n1C1C=CC2CCCCCC1 | > 100 µM (inactive) | > 100 µM (inactive) | > 100 µM (inactive) | 36.1 µM (inactive) | > 100 µM (inactive) | 97.3 µM (inactive) | – | > 100 µM (inactive) | > 100 µM (inactive) | > 100 µM (inactive) | > 100 µM (inactive) | > 100 µM (inactive) | > 100 µM (inactive) | > 100 µM (inactive) | > 100 µM (inactive) | > 100 µM (inactive) | > 100 µM (inactive) | > 100 µM (inactive) | – | > 100 µM (inactive)
7 | Nc1c(C(=O)c2ccccc2)nnc2ccccc12 | 16.7 µM (inactive) | 20.4 µM (inactive) | – | – | 18.2 µM (inactive) | 18.7 µM (inactive) | – | 29.5 µM (inactive) | 17.5 µM (inactive) | – | 18.5 µM (inactive) | 37.3 µM (inactive) | 21.9 µM (inactive) | 23.4 µM (inactive) | 24.5 µM (inactive) | 41.2 µM (inactive) | 34.5 µM (inactive) | – | – | 29.8 µM (inactive)
8 | CCOC(=O)c1c(SCc2ccccc2)nc2c3ccccc3ccn12 | > 100 µM (inactive) | > 100 µM (inactive) | > 100 µM (inactive) | 21.4 µM (inactive) | > 100 µM (inactive) | – | 54.5 µM (inactive) | > 100 µM (inactive) | > 100 µM (inactive) | 52.7 µM (inactive) | > 100 µM (inactive) | > 100 µM (inactive) | > 100 µM (inactive) | > 100 µM (inactive) | 40.1 µM (inactive) | > 100 µM (inactive) | 57.7 µM (inactive) | > 100 µM (inactive) | 70.6 µM (inactive) | 56 µM (inactive)
9 | O=C(Nc1ccccc1)C(=O)C(C(=O)c1ccccc1F)C1OC(=O)c2ccccc21 (centres undefined) | 71.8 µM (inactive) | 26.9 µM (inactive) | 37.1 µM (inactive) | – | – | – | 89.3 µM (inactive) | 55.6 µM (inactive) | 23.5 µM (inactive) | 49 µM (inactive) | 22.4 µM (inactive) | 37.8 µM (inactive) | – | – | 42.8 µM (inactive) | 41.9 µM (inactive) | 22.9 µM (inactive) | – | 35.8 µM (inactive) | 31.6 µM (inactive)
10 | CSc1ccc(-c2cc(-c3nc4ccccc4[nH]3)nc3[nH]c(-c4nc5ccccc5[nH]4)cc(=O)c23)cc1 | – | 60.3 µM (inactive) | 71.1 µM (inactive) | > 100 µM (inactive) | – | 85.3 µM (inactive) | – | > 100 µM (inactive) | 92.5 µM (inactive) | > 100 µM (inactive) | 37.8 µM (inactive) | > 100 µM (inactive) | 41.1 µM (inactive) | > 100 µM (inactive) | 84.5 µM (inactive) | – | 93.8 µM (inactive) | 95.1 µM (inactive) | 52.5 µM (inactive) | 82.4 µM (inactive)
11 | CS(=O)(=O)c1nc(-c2cc3c(c(S(C)(=O)=O)n2)CCC3)cc2c1CCCCC2 | > 100 µM (inactive) | > 100 µM (inactive) | > 100 µM (inactive) | 9.08 µM (inactive) | 54.7 µM (inactive) | 20.5 µM (inactive) | – | 21 µM (inactive) | 22.9 µM (inactive) | 11.9 µM (inactive) | > 100 µM (inactive) | > 100 µM (inactive) | > 100 µM (inactive) | > 100 µM (inactive) | 16.9 µM (inactive) | > 100 µM (inactive) | 41.9 µM (inactive) | – | 18.5 µM (inactive) | > 100 µM (inactive)
12 | OC(c1nc2ccccc2s1)(C(F)(F)F)C(F)(F)F | > 100 µM (inactive) | > 100 µM (inactive) | > 100 µM (inactive) | > 100 µM (inactive) | > 100 µM (inactive) | – | > 100 µM (inactive) | > 100 µM (inactive) | > 100 µM (inactive) | > 100 µM (inactive) | > 100 µM (inactive) | > 100 µM (inactive) | > 100 µM (inactive) | > 100 µM (inactive) | > 100 µM (inactive) | > 100 µM (inactive) | > 100 µM (inactive) | > 100 µM (inactive) | > 100 µM (inactive) | > 100 µM (inactive)
13 | O=S(=O)(O)CCSSCCS(=O)(=O)O | – | > 1000 µM (inactive) | > 1000 µM (inactive) | – | > 1000 µM (inactive) | > 1000 µM (inactive) | > 1000 µM (inactive) | > 1000 µM (inactive) | > 1000 µM (inactive) | > 1000 µM (inactive) | > 1000 µM (inactive) | > 1000 µM (inactive) | > 1000 µM (inactive) | > 1000 µM (inactive) | > 1000 µM (inactive) | > 1000 µM (inactive) | > 1000 µM (inactive) | > 1000 µM (inactive) | > 1000 µM (inactive) | > 1000 µM (inactive)
14 | C=C1C(O)CC[C@]2(C)C1C1OC(C)(C)O[C@]13CC(=O)C(C)=C([C@H]1OC(C)(C)OC12)C3(C)C (some centres undefined) | > 100 µM (inactive) | > 100 µM (inactive) | > 100 µM (inactive) | – | > 100 µM (inactive) | > 100 µM (inactive) | 23.1 µM (inactive) | > 100 µM (inactive) | > 100 µM (inactive) | > 100 µM (inactive) | > 100 µM (inactive) | > 100 µM (inactive) | > 100 µM (inactive) | > 100 µM (inactive) | > 100 µM (inactive) | > 100 µM (inactive) | > 100 µM (inactive) | 47.9 µM (inactive) | 27.4 µM (inactive) | 96.4 µM (inactive)
15 | O=C1/C(=C/c2cccc([N+](=O)[O-])c2)CCCc2ccccc21 | – | 2.42 µM (inactive) | 17.3 µM (inactive) | 3.94 µM (inactive) | 17 µM (inactive) | 12.5 µM (inactive) | – | 16.5 µM (inactive) | 10.1 µM (inactive) | 29.4 µM (inactive) | 18.8 µM (inactive) | 19.9 µM (inactive) | 9.66 µM (inactive) | 15 µM (inactive) | 15.6 µM (inactive) | 4.76 µM (inactive) | 8.71 µM (inactive) | – | – | 13.7 µM (inactive)
16 | Oc1cc(-c2ccc(F)cc2)nc2ncccc12 | – | 31.9 µM (inactive) | > 100 µM (inactive) | 65.2 µM (inactive) | > 100 µM (inactive) | > 100 µM (inactive) | 87.3 µM (inactive) | 70.5 µM (inactive) | 33.8 µM (inactive) | 30.3 µM (inactive) | 20.2 µM (inactive) | 52.8 µM (inactive) | – | 74.6 µM (inactive) | 98.2 µM (inactive) | 38.2 µM (inactive) | – | 48.1 µM (inactive) | – | 78.9 µM (inactive)

Reference: ChEMBL document CHEMBL1201862, “PubChem BioAssay data set” (2004)
